# Earlier results in paper PMC3433420 (PLoS ONE, 2012).
# Read-outs that look alike come from different tables or passages of the source.
# Molecular target: SH2 and PTB domains
# Conditions: cited from earlier work
# Excerpt: Supplement pone.0044471.s022.xlsx, sheet "Most recent PM interactions" | column: Kd || Supplement pone.0044471.s022.xlsx, sheet "All original PM interactions" | column: Kd
# [1] = protein ABL2, ref Jones et al. 2006 / Kaushansky et al. Mol Biosys 2008 / Kaushansky et al. Chem and Biol 2008
# [2] = protein CRK, ref Jones et al. 2006 / Kaushansky et al. Mol Biosys 2008 / Kaushansky et al. Chem and Biol 2008
# [3] = protein CRKL, ref Jones et al. 2006 / Kaushansky et al. Mol Biosys 2008 / Kaushansky et al. Chem and Biol 2008
# [4] = protein RASA1-N, ref Jones et al. 2006 / Kaushansky et al. Mol Biosys 2008 / Kaushansky et al. Chem and Biol 2008
# [5] = protein SYK-NC, ref Jones et al. 2006 / Kaushansky et al. Mol Biosys 2008 / Kaushansky et al. Chem and Biol 2008
# [6] = protein YES1, ref Jones et al. 2006 / Kaushansky et al. Mol Biosys 2008 / Kaushansky et al. Chem and Biol 2008
substance,measurement,setting,value
FGGAVENPEpYLTPQGGA [ErbB2 1196],Kd,"Protein ABL2, most recent PM interactions, ref Jones et al. 2006 / Kaushansky et al. Chem and Biol 2008",480 nM
same,Kd,"Protein CRKL, most recent PM interactions, ref Jones et al. 2006 / Kaushansky et al. Chem and Biol 2008",1440 nM
same,Kd,"Protein FGR, most recent PM interactions, ref Jones et al. 2006 / Kaushansky et al. Chem and Biol 2008",1680 nM
same,Kd,"Protein GRB2, most recent PM interactions, ref Jones et al. 2006 / Kaushansky et al. Chem and Biol 2008",1330 nM
same,Kd,"Protein ITK, most recent PM interactions, ref Jones et al. 2006 / Kaushansky et al. Chem and Biol 2008",770 nM
same,Kd,"Protein NCK2, most recent PM interactions, ref Jones et al. 2006 / Kaushansky et al. Chem and Biol 2008",1100 nM
same,Kd,"Protein PIK3R1-NC, most recent PM interactions, ref Jones et al. 2006 / Kaushansky et al. Chem and Biol 2008",230 nM
same,Kd,"Protein PIK3R2-N, most recent PM interactions, ref Jones et al. 2006 / Kaushansky et al. Chem and Biol 2008",1280 nM
same,Kd,"Protein PIK3R3-N, most recent PM interactions, ref Jones et al. 2006 / Kaushansky et al. Chem and Biol 2008",1390 nM
same,Kd,"Protein PIK3R3-NC, most recent PM interactions, ref Jones et al. 2006 / Kaushansky et al. Chem and Biol 2008",1340 nM
same,Kd,"Protein PLCG2-NC, most recent PM interactions, ref Jones et al. 2006 / Kaushansky et al. Chem and Biol 2008",1350 nM
same,Kd,"Protein RASA1-N, most recent PM interactions, ref Jones et al. 2006 / Kaushansky et al. Chem and Biol 2008",670 nM
same,Kd,"Protein SHC1-PTB, most recent PM interactions, ref Jones et al. 2006 / Kaushansky et al. Chem and Biol 2008",350 nM
same,Kd,"Protein SYK-C, most recent PM interactions, ref Jones et al. 2006 / Kaushansky et al. Chem and Biol 2008",1240 nM
same,Kd,"Protein SYK-NC, most recent PM interactions, ref Jones et al. 2006 / Kaushansky et al. Chem and Biol 2008",1330 nM
same,Kd,"Protein VAV1, most recent PM interactions, ref Jones et al. 2006 / Kaushansky et al. Chem and Biol 2008",1250 nM
same,Kd,"Protein VAV2, most recent PM interactions, ref Jones et al. 2006 / Kaushansky et al. Chem and Biol 2008",230 nM
same,Kd,"Protein VAV3, most recent PM interactions, ref Jones et al. 2006 / Kaushansky et al. Chem and Biol 2008",600 nM
same,Kd,"Protein YES1, most recent PM interactions, ref Jones et al. 2006 / Kaushansky et al. Chem and Biol 2008",1190 nM
THDPSPLQRpYSEDPTVPd [ErbB2 1112],Kd,"Protein BLK, most recent PM interactions, ref Kaushansky et al. Chem and Biol 2008",760 nM
same,Kd,"Protein PLCG2-NC, most recent PM interactions, ref Kaushansky et al. Chem and Biol 2008",1060 nM
LGSGAFGTVpYKGLWIPEd [ErbB1 727],Kd,"Protein SRC, most recent PM interactions, ref Kaushansky et al. Mol Biosys 2008",580 nM
same,Kd,"Protein YES1, most recent PM interactions, ref Kaushansky et al. Mol Biosys 2008",540 nM
"EDYEpYMNRQRDGd [ErbB3 pY1262, N-terminally rhodamine-labeled 13-mer phosphopeptide]",Kd,"Protein PIK3R3-NC, original PM interactions, ref Jones et al. 2006 / Kaushansky et al. Chem and Biol 2008",2000 nM
same,Kd,"Protein PLCG2-NC, original PM interactions, ref Jones et al. 2006 / Kaushansky et al. Chem and Biol 2008",2000 nM
same,Kd,"Protein RASA1-NC, original PM interactions, ref Jones et al. 2006 / Kaushansky et al. Chem and Biol 2008",2000 nM
same,Kd,"Protein SLA, original PM interactions, ref Jones et al. 2006 / Kaushansky et al. Chem and Biol 2008",2000 nM
same,Kd,"Protein SOCS5, original PM interactions, ref Jones et al. 2006 / Kaushansky et al. Chem and Biol 2008",2000 nM
same,Kd,"protein ABL2, ref Jones et al. 2006 / Kaushansky et al. Chem and Biol 2008",1960 nM
same,Kd,"protein RASA1-N, ref Jones et al. 2006 / Kaushansky et al. Chem and Biol 2008",1210 nM
PAGSVQNPVpYHNQPLNPd [ErbB1 1110],Kd,"Protein ABL1, most recent PM interactions, ref Jones et al. 2006 / Kaushansky et al. Mol Biosys 2008 / Kaushansky et al. Chem and Biol 2008",520 nM
same,Kd,"Protein ABL2, most recent PM interactions, ref Jones et al. 2006 / Kaushansky et al. Mol Biosys 2008 / Kaushansky et al. Chem and Biol 2008",60 nM
same,Kd,"Protein SHC1-PTB, most recent PM interactions, ref Jones et al. 2006 / Kaushansky et al. Mol Biosys 2008 / Kaushansky et al. Chem and Biol 2008",320 nM
"ENPEpYLGLDVPVd [ErbB2 pY1248, N-terminally rhodamine-labeled 13-mer phosphopeptide]",Kd,"Protein ABL2, original PM interactions, ref Jones et al. 2006 / Kaushansky et al. Chem and Biol 2008",210 nM
same,Kd,"Protein SHC1-PTB, original PM interactions, ref Jones et al. 2006 / Kaushansky et al. Chem and Biol 2008",280 nM
"ENAEpYLRVAPQSd [ErbB1 pY1197, N-terminally rhodamine-labeled 13-mer phosphopeptide]",Kd,[1],210 nM
same,Kd,"protein BLK, ref Jones et al. 2006 / Kaushansky et al. Mol Biosys 2008 / Kaushansky et al. Chem and Biol 2008",500 nM
same,Kd,[2],1070 nM
same,Kd,[3],1340 nM
same,Kd,"protein FGR, ref Jones et al. 2006 / Kaushansky et al. Mol Biosys 2008 / Kaushansky et al. Chem and Biol 2008",620 nM
same,Kd,"protein GRB2, ref Jones et al. 2006 / Kaushansky et al. Mol Biosys 2008 / Kaushansky et al. Chem and Biol 2008",420 nM
same,Kd,"protein ITK, ref Jones et al. 2006 / Kaushansky et al. Mol Biosys 2008 / Kaushansky et al. Chem and Biol 2008",500 nM
same,Kd,"protein LYN, ref Jones et al. 2006 / Kaushansky et al. Mol Biosys 2008 / Kaushansky et al. Chem and Biol 2008",170 nM
same,Kd,"protein PIK3R1-N, ref Jones et al. 2006 / Kaushansky et al. Mol Biosys 2008 / Kaushansky et al. Chem and Biol 2008",500 nM
same,Kd,"protein PIK3R1-NC, ref Jones et al. 2006 / Kaushansky et al. Mol Biosys 2008 / Kaushansky et al. Chem and Biol 2008",500 nM
same,Kd,"protein PIK3R2-N, ref Jones et al. 2006 / Kaushansky et al. Mol Biosys 2008 / Kaushansky et al. Chem and Biol 2008",500 nM
same,Kd,"protein PIK3R3-NC, ref Jones et al. 2006 / Kaushansky et al. Mol Biosys 2008 / Kaushansky et al. Chem and Biol 2008",810 nM
same,Kd,"protein PLCG2-NC, ref Jones et al. 2006 / Kaushansky et al. Mol Biosys 2008 / Kaushansky et al. Chem and Biol 2008",500 nM
same,Kd,[4],710 nM
same,Kd,"protein RASA1-NC, ref Jones et al. 2006 / Kaushansky et al. Mol Biosys 2008 / Kaushansky et al. Chem and Biol 2008",500 nM
same,Kd,"protein SHC1-PTB, ref Jones et al. 2006 / Kaushansky et al. Mol Biosys 2008 / Kaushansky et al. Chem and Biol 2008",340 nM
same,Kd,"protein SHC1, ref Jones et al. 2006 / Kaushansky et al. Mol Biosys 2008 / Kaushansky et al. Chem and Biol 2008",780 nM
same,Kd,"protein SHC3, ref Jones et al. 2006 / Kaushansky et al. Mol Biosys 2008 / Kaushansky et al. Chem and Biol 2008",1030 nM
same,Kd,"protein SRC, ref Jones et al. 2006 / Kaushansky et al. Mol Biosys 2008 / Kaushansky et al. Chem and Biol 2008",380 nM
same,Kd,"protein SYK-N, ref Jones et al. 2006 / Kaushansky et al. Mol Biosys 2008 / Kaushansky et al. Chem and Biol 2008",290 nM
same,Kd,[5],380 nM
same,Kd,"protein TEC, ref Jones et al. 2006 / Kaushansky et al. Mol Biosys 2008 / Kaushansky et al. Chem and Biol 2008",480 nM
same,Kd,[6],130 nM
"RDPHpYQDPHSTAd [ErbB1 pY1125, N-terminally rhodamine-labeled 13-mer phosphopeptide]",Kd,[1],130 nM
same,Kd,"protein BMX, ref Jones et al. 2006 / Kaushansky et al. Mol Biosys 2008 / Kaushansky et al. Chem and Biol 2008",1070 nM
same,Kd,[2],1230 nM
same,Kd,[3],2000 nM
same,Kd,[4],1320 nM
same,Kd,"protein SHB, ref Jones et al. 2006 / Kaushansky et al. Mol Biosys 2008 / Kaushansky et al. Chem and Biol 2008",990 nM
same,Kd,[5],980 nM
same,Kd,"protein TNS1, ref Jones et al. 2006 / Kaushansky et al. Mol Biosys 2008 / Kaushansky et al. Chem and Biol 2008",1280 nM
same,Kd,[6],380 nM
